Measured values: patent publication US9510598B2, “Nitrogen-containing heterocyclic compounds for plant disease control” (BAYER CROPSCIENCE AG, priority 2012, dated 2016)
Like-named read-outs stand apart in the source and are kept apart here.

How the values were obtained:
[1] = format: physicochemical
[2] = tested on: Septoria tritici; experiment: In vivo preventive test on Septoria tritici (leaf spot on wheat); settings: 500 ppm; wheat plants sprayed 24 hours before contamination; grading 21 to 28 days after contamination vs control plants
Procedure, shortened: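 Scipion wheat at 1-leaf stage sprayed with compound, controls receiving acetone/tween/DMSO/water vehicle; 24 h later leaves inoculated with Septoria tritici spores (500 000 spores per ml). Efficacy (%) graded versus control plants 21 to 28 days after contamination.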

[3] = tested on: Sphaerotheca fuliginea; experiment: In vivo preventive test on Sphaerotheca fuliginea (powdery mildew on cucurbits); settings: 500 ppm; gherkin plants sprayed 24 hours before contamination; grading 12 days after contamination vs control plants
Procedure, shortened: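 Preventive spray of gherkin plants at Z11 cotyledon stage, grown at 24° C; inoculation 24 hours later with Sphaerotheca fuliginea spores (100 000 spores per ml). Efficacy graded 12 days post-inoculation as % versus solvent-treated control plants.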

[4] = tested on: Puccinia recondita; experiment: In vivo preventive test on Puccinia recondita (brown rust on wheat); settings: 500 ppm; wheat plants sprayed 24 hours before contamination; grading 10 days after contamination vs control plants
Protocol: Wheat plants (“Scipion” variety), sown in starter cups on a 50/50 peat soil-pozzolana substrate and grown at 22° C. (12 h)/20° C. (12 h), are treated at the 1-leaf stage (10 cm height) by spraying with the active ingredient prepared as described above. Plants, used as controls, are treated with the mixture of acetone/tween/DMSO/water not containing the active material. After 24 hours, the plants are contaminated by spraying the leaves with an aqueous suspension of Puccinia recondita spores (100 000 spores per ml).

[5] = tested on: Botrytis cinerea; experiment: In vivo preventive test on Botrytis cinerea (grey mould); settings: 500 ppm; gherkin plants sprayed 24 hours before contamination; grading 4-5 days after contamination vs control plants
Procedure, shortened: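 Gherkin plants ("Vert petit de Paris") sprayed with compound at Z11 cotyledon stage, then inoculated 24 h later with B. cinerea spores (50 000/ml) in PDB/fructose/NH4NO3/KH2PO4 nutrient solution. Incubated at 17 °C, 80% RH; % efficacy versus solvent-treated controls graded 4–5 days after contamination.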

[6] = tested on: Phytophthora infestans; format: in vivo; settings: 500 ppm; tomato plants sprayed 24 hours before contamination; grading 5 days after contamination vs control plants
[7] = tested on: Alternaria brassicae; experiment: In vivo preventive test on Alternaria brassicae (leaf spot on radish); settings: 500 ppm; radish plants sprayed 24 hours before contamination; grading 5 days after contamination vs control plants
Protocol: Radish plants (“Pernod Clair” variety), sown in starter cups on a 50/50 peat soil-pozzolana substrate and grown at 17° C., are treated at the 2-leaf stage by spraying with the active ingredient prepared as described above. Plants, used as controls, are treated with the mixture of acetone/tween/DMSO/water not containing the active material. After 24 hours, the plants are contaminated by spraying the leaves with an aqueous suspension of Alternaria brassicae spores (50 000 spores per ml). The spores are collected from a 15-day-old culture. […] Grading (% of efficacy) is carried out 5 days after the contamination, in comparison with the control plants.

[8] = method [a]: HPLC/LC-MS on reversed phase at pH 2.7, 0.1% formic acid in water / acetonitrile, gradient 10% to 95% acetonitrile
[9] = HPLC on reversed phase columns, method [a]: pH 2.7, 0.1% formic acid in water / acetonitrile, linear gradient 10% to 95% acetonitrile
[10] = method [a]: HPLC/LC-MS on reversed phase at pH 2.7, 0.1% formic acid in water / acetonitrile, linear gradient 10% to 95% acetonitrile

SMILES	log P [1, 8]	% of efficacy (protection) [2] [%]	% of efficacy (protection) [3] [%]	% of efficacy (protection) [4] [%]	% of efficacy (protection) [5] [%]	log P [1, 9]	% of efficacy (protection) [6] [%]	log P [1, 10]	% of efficacy (protection) [7] [%]	log P ([1]; HPLC on reversed phase columns, method [a]: pH 2.7, 0.1% formic acid in water and acetonitrile, linear gradient 10% to 95% acetonitrile)
C#Cc1cnc2ccc(C3=NOC(CC)(C(=O)NC(C)C)C3)cc2c1 (racemic) [compound 446]	2.76[a]	100	94	83	98	–	–	–	–	–
CCOCCCNC(=O)C1(C)CC(c2ccc3ncc(I)cc3c2)=NO1 (racemic) [compound 456]	2.86[a]	100	98	83	98	–	–	–	–	–
CCn1cc(CNC(=O)C2(C)CC(c3cc(Cl)c4ncc(Br)cc4c3)=NO2)c(C)n1 (racemic) [compound 548]	–	100	80	83	94	2.77[a]	–	–	–	–
CCCn1cc(CNC(=O)C2(OC)CC(c3ccc4ncc(Br)cc4c3)=NO2)c(C)n1 (stereo not shown) [compound 50]	–	100	100	88	100	–	100	–	–	–
CCn1cc(CNC(=O)C2(C)CC(c3ccc4ncc(OC)cc4c3)=NO2)c(C)n1 (stereo not shown) [compound 135]	–	100	–	89	–	–	–	1.83^[a]	100	–
CC(C)NC(=O)C1(C)CC(c2ccc3ncc(S(C)(=O)=O)cc3c2)=NO1 (stereo not shown) [compound 146]	–	–	–	72	–	–	85	1.81^[a]	–	–
CCn1cc(CNC(=O)C2(C)CC(c3ccc4ncc(C)cc4c3)=NO2)c(C)n1 (stereo not shown) [compound 257]	–	–	–	81	–	1.46^[a]	100	–	–	–
CC(C)NC(=O)C1(C)ON=C(c2ccc3ncc(Br)cc3c2)C1C(F)(F)F (stereo not shown) [compound 423]	3.71[a]	–	–	78	–	–	–	–	83	–
C#Cc1cnc2ccc(C3=NOC(OC)(C(=O)NC4CC4)C3)cc2c1 (stereo not shown) [compound 504]	2.08[a]	100	100	72	99	–	–	–	–	–
C#Cc1cnc2c(C)cc(C3=NOC(C)(C(=O)NCC4COC(C)(C)O4)C3)cc2c1 (stereo not shown) [compound 536]	–	100	100	72	100	2.98[a]	–	–	–	–
CCCn1cc(CNC(=O)C2(OC)CC(c3cc(Cl)c4ncc(Br)cc4c3)=NO2)c(C)n1 (stereo not shown) [compound 567]	–	100	100	75	100	3.08[a]	–	–	–	–
C=CC1(C(=O)NCc2cn(CC)nc2C)CC(c2ccc3ncc(Br)cc3c2)=NO1 (stereo not shown) [compound 599]	–	100	100	88	100	2.61[a]	85	–	–	–
CCn1cc(CNC(=O)C2(C(F)F)CC(c3ccc4ncc(I)cc4c3)=NO2)c(C)n1 (stereo not shown) [compound 617]	–	–	100	71	95	2.73[a]	–	–	–	–
C#Cc1cnc2ccc(C3=NOC(C=C)(C(=O)NCc4cn(CC)nc4C)C3)cc2c1 (stereo not shown) [compound 724]	–	100	100	71	98	–	100	–	–	2.37[a]
